Columns and labels:
Format in all cases: cell-based, human
[1] = system: NCI-H522; assay: NCI-60 cell line screen (SRB), NCI-H522; conditions: Non-Small Cell Lung Cancer; NCI-H522; 48 h drug incubation; read-out: GI50
Experimental: (§1) Drug sensitivity data are provided as GI50s (concentrations required to inhibit growth by 50%). The first row of the text file identifies cell lines, separated by tabs. Subsequent rows contain compound number, compound name, and GI50 for each cell line, each separated by a tab. […] For a typical screening experiment, cells are inoculated into 96 well microtiter plates in 100 μL at plating densities ranging from 5,000 to 40,000 cells/well depending on the doubling time of individual cell lines. After cell inoculation, the microtiter plates are incubated at 37° C., 5% CO2, 95% air and 100% relative humidity for 24 h prior to addition of experimental drugs. After 24 h, two plates of each cell line are fixed in situ with TCA, to represent a measurement of the cell population for each cell line at the time of drug addition (Tz). Experimental drugs are solubilized in dimethyl sulfoxide at 400-fold the desired final maximum test concentration and stored frozen prior to use. At the time of drug addition, an aliquot of frozen concentrate is thawed and diluted to twice the desired final maximum test concentration with complete medium containing 50 μg/ml gentamicin. Additional four, 10-fold or one-half log serial dilutions are made to provide a total of five drug concentrations plus control. Aliquots of 100 μl of these different drug dilutions are added to the appropriate microtiter wells already containing 100 μl of medium, resulting in the required final drug concentrations. Following drug addition, the plates are incubated for an additional 48 h at 37° C., 5% CO2, 95% air, and 100% relative humidity. For adherent cells, the assay is terminated by the addition of cold TCA. Cells are fixed in situ by the gentle addition of 50 μl of cold 50% (w/v) TCA (final concentration, 10% TCA) and incubated for 60 minutes at 4° C. The supernatant is discarded, and the plates are washed five times with tap water and air dried. Sulforhodamine B (SRB) solution (100 μl) at 0.4% (w/v) in 1% acetic acid is added to each well, and plates are incubated for 10 minutes at room temperature. After staining, unbound dye is removed by washing five times with 1% acetic acid and the plates are air dried. Bound stain is subsequently solubilized with 10 mM trizma base, and the absorbance is read on an automated plate reader at a wavelength of 515 nm. For suspension cells, the methodology is the same except that the assay is terminated by fixing settled cells at the bottom of the wells by gently adding 50 μl of 80% TCA (final concentration, 16% TCA). Using the seven absorbance measurements [time zero, (Tz), control growth, (C), and test growth in the presence of drug at the five concentration levels (Ti)], the percentage growth is calculated at each of the drug concentrations levels. […]

[2] = system: Colon Cancer cell lines; assay: NCI-60 cell line screen, Colon Cancer panel average; conditions: average over Colon Cancer panel; read-out: GI50 Average
Experimental: as §1

[3] = system: MDA-MB-468; assay: NCI-60 cell line screen (SRB), MDA-MB-468; conditions: Breast Cancer; MDA-MB-468; 48 h drug incubation; read-out: GI50
Experimental: as §1

[4] = system: HS 578T; assay: NCI-60 cell line screen (SRB), HS 578T; conditions: Breast Cancer; HS 578T; 48 h drug incubation; read-out: GI50
Experimental: as §1

[5] = system: NCI-H226; assay: NCI-60 cell line screen (SRB), NCI-H226; conditions: Non-Small Cell Lung Cancer; NCI-H226; 48 h drug incubation; read-out: GI50
Experimental: as §1

[6] = system: DU145; assay: NCI-60 cell line screen (SRB), DU145; conditions: Prostate Cancer; DU145; 48 h drug incubation; read-out: GI50
Experimental: as §1

[7] = system: HT29; assay: NCI-60 cell line screen (SRB), HT29; conditions: Colon Cancer; HT29; 48 h drug incubation; read-out: GI50
Experimental: as §1

[8] = system: Prostate Cancer cell lines; assay: NCI-60 cell line screen, Prostate Cancer panel average; conditions: average over Prostate Cancer panel; read-out: GI50 Average
Experimental: as §1

[9] = system: Melanoma cell lines; assay: NCI-60 cell line screen, Melanoma panel average; conditions: average over Melanoma panel; read-out: GI50 Average
Experimental: as §1

[10] = system: NCI/ADR-RES; assay: NCI-60 cell line screen (SRB), NCI/ADR-RES; conditions: Ovarian Cancer, 48 h drug incubation, read-out: GI50
Experimental: as §1

[11] = system: MDA-MB-231/ATCC; assay: NCI-60 cell line screen (SRB), MDA-MB-231/ATCC; conditions: Breast Cancer; MDA-MB-231/ATCC; 48 h drug incubation; read-out: GI50
Experimental: as §1

[12] = system: U-251; assay: NCI-60 cell line screen (SRB), U-251; conditions: CNS Cancer; U-251; 48 h drug incubation; read-out: GI50
Experimental: as §1

[13] = system: HCT-116; assay: NCI-60 cell line screen (SRB), HCT-116; conditions: Colon Cancer; HCT-116; 48 h drug incubation; read-out: GI50
Experimental: as §1

[14] = system: K-562; assay: NCI-60 cell line screen (SRB), K-562; conditions: Leukemia; K-562; 48 h drug incubation; read-out: GI50
Experimental: as §1

[15] = system: HOP-92; assay: NCI-60 cell line screen (SRB), HOP-92; conditions: Non-Small Cell Lung Cancer; HOP-92; 48 h drug incubation; read-out: GI50
Experimental: as §1

[16] = system: SW-620; assay: NCI-60 cell line screen (SRB), SW-620; conditions: Colon Cancer; SW-620; 48 h drug incubation; read-out: GI50
Experimental: as §1

[17] = system: HOP-62; assay: NCI-60 cell line screen (SRB), HOP-62; conditions: Non-Small Cell Lung Cancer; HOP-62; 48 h drug incubation; read-out: GI50
Experimental: as §1

[18] = system: OVCAR-8; assay: NCI-60 cell line screen (SRB), OVCAR-8; conditions: Ovarian Cancer; OVCAR-8; 48 h drug incubation; read-out: GI50
Experimental: as §1

[19] = system: MDA-MB-435; assay: NCI-60 cell line screen (SRB), MDA-MB-435; conditions: Melanoma; MDA-MB-435; 48 h drug incubation; read-out: GI50
Experimental: as §1

[20] = system: OVCAR-3; assay: NCI-60 cell line screen (SRB), OVCAR-3; conditions: Ovarian Cancer; OVCAR-3; 48 h drug incubation; read-out: GI50
Experimental: as §1

[21] = system: Leukemia cell lines; assay: NCI-60 cell line screen, Leukemia panel average; conditions: average over Leukemia panel; read-out: GI50 Average
Experimental: as §1

[22] = system: Breast Cancer cell lines; assay: NCI-60 cell line screen, Breast Cancer panel average; conditions: average over Breast Cancer panel; read-out: GI50 Average
Experimental: as §1

[23] = system: HCT-15; assay: NCI-60 cell line screen (SRB), HCT-15; conditions: Colon Cancer; HCT-15; 48 h drug incubation; read-out: GI50
Experimental: as §1

[24] = system: COLO 205; assay: NCI-60 cell line screen (SRB), COLO 205; conditions: Colon Cancer; COLO 205; 48 h drug incubation; read-out: GI50
Experimental: as §1

CCOP(=O)(OCC)C(NC(=O)[C@H](Cc1ccc(-c2ccccc2)cc1)NC(=O)c1ccc(OCCC[Si](C)(C)C)cc1)P(=O)(OCC)OCC [GH1505, N^α-{4-[3-(trimethylsilyl)propoxy]-benzoyl}-N-[bis(dietoxyphosphoryl)methyl]-(4-phenyl-L-phenylalaninamide)]
GI50 [1]: 2.02 µM
GI50 [2]: 2.12 µM
GI50 [3]: 1.72 µM
GI50 [4]: 2.61 µM
GI50 [5]: 1.84 µM
GI50 [6]: 1.93 µM
GI50 [7]: 2.02 µM
GI50 [8]: 2.02 µM
GI50 [9]: 1.92 µM
GI50 [10]: 3.31 µM
GI50 [11]: 1.62 µM
GI50 [12]: 2.09 µM
GI50 [13]: 1.93 µM
GI50 [14]: 3.46 µM
GI50 [15]: 2.09 µM
GI50 [16]: 2.19 µM
GI50 [17]: 2 µM
GI50 [18]: 2.96 µM
GI50 [19]: 1.9 µM
GI50 [20]: 1.87 µM
GI50 [21]: 2.8 µM
GI50 [22]: 2.17 µM
GI50 [23]: 2.25 µM
GI50 [24]: 1.84 µM

Source: US9828393B2, “Silylalkyloxyaryl compounds and methods for treating cancer” (THE REGENTS OF THE UNIVERSITY OF COLORADO, a body corporate, priority 2013, dated 2017)
